According to paper PMC6429436 (Bioconjugate Chemistry, 2019):
Values joined by “and” are separate entries in the source; they are usually repeats but may differ in a detail not shown here. Identical values can stand only once.

What was measured:
CTB = conditions: LeY-CTB binding, secondary binding site; cited from earlier work
[1] = tested on: CT-induced swelling of intestinal organoids; assay: cells; assay type: cell-based, human
cholera toxin B-subunit = cholera toxin B-subunit (Vibrio cholerae serotype O1, UniProt P01556); assay: biochemical; assay type: binding
Sequence of cholera toxin B-subunit (P01556 22-124 limits assumed): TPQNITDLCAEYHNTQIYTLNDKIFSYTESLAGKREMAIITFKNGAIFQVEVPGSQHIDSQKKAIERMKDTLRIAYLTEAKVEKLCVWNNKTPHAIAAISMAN

In the case of `CC(=O)N[C@@H]1[C@@H](O[C@@H]2O[C@@H](C)[C@@H](O)[C@@H](O)[C@@H]2O)[C@H](O[C@@H]2O[C@H](CO)[C@H](O)[C@H](O)[C@H]2O[C@@H]2O[C@@H](C)[C@@H](O)[C@@H](O)[C@@H]2O)[C@@H](CO)O[C@H]1O` [LeY], the Kd (CTB) is listed as 1.4 mM.
With `O=C[C@H](O)[C@@H](O)[C@@H](O)[C@H](O)CO` [galactose] the rel. pot. [1] was 1, the “rel. pot. per sugar” value [1] was 1 and the IC50 ([1]; Homo sapiens) was 100 mM and 18000 µg/mL. For the same compound, the rel. pot. (cholera toxin B-subunit) was 1, the “rel. pot. per sugar” value (cholera toxin B-subunit) was 1 and the IC50 (cholera toxin B-subunit; IC50 (μg/mL)) was 111 mM.
